{
  "source": "patent US20150284362A1",
  "about": "“CARBAZOLE-CONTAINING AMIDES, CARBAMATES, AND UREAS AS CRYPTOCHROME MODULATORS” (ReSet Therapeutics, Inc., priority 2014, published 2015)",
  "key": {"db/db mice [1]": {"tested_on": "db/db mice", "assay": "7 day dosing, glucose metabolism, insulin and compound levels in db/db mouse model of type II diabetes", "assay_type": "in vivo", "details": "50 mg/kg PO QD 7 days", "from_the_text": "(§1) Significance was accepted when p<0.05."}, "[2]": {"biological_target": "T1, FAD-binding domain of human CRY1 protein (hCRY1) (Homo sapiens, UniProt Q16526)", "T1 construct": "Myc-DDK (Myc + FLAG) (C); made in house", "T1 sequence (Q16526 1-494)": "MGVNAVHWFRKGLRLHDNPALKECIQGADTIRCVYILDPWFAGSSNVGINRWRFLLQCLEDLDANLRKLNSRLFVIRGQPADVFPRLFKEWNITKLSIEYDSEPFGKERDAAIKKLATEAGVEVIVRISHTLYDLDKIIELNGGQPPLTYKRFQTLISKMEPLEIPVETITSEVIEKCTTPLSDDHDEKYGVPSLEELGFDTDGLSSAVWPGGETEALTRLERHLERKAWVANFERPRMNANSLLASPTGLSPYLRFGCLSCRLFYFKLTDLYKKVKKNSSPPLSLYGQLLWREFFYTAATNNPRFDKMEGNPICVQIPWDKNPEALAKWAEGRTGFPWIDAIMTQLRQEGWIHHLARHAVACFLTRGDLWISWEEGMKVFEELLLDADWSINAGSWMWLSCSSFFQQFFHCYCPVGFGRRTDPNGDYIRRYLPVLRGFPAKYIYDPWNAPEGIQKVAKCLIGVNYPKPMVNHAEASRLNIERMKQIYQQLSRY", "assay": "Thermal shift binding assay (differential scanning fluorimetry)", "details": "purified FADBD 0.5 μg per well, 5% DMSO", "description": "Binding of compounds to the isolated FAD-binding domain of human CRY1 protein (hCRY1) was determined using a differential scanning fluorimetry (‘thermal shift’) assay (Pantoliano et al. (2001) J Biomol Screening 6, 429; Niesen et al. (2007) Nature Protocols 2, 2212). The FAD-binding domain of hCRY1 (amino acid residues 1-494) with a C-terminal Myc-DDK tag (FADBD), was produced by transient transfection of HEK293T cells (Catalog # CRL-3216, American Type Culture Collection) and purified by anti-FLAG affinity chromatography (Catalog # A2220, Sigma-Aldrich). FADBD (0.5 μg per well) was incubated with dilutions of compounds in DMSO (5% DMSO final concentration in reaction) in 17.5 μl Tris-buffered saline (TBS) for 10 minutes on ice, then 2.5 μl of 8× Sypro-Orange Dye (Life Technologies) was added to each well. Triplicate wells were assayed for each compound concentration. The melting temperatures were measured in an ABI7500 quantitative PCR instrument using the melt curve mode with a thermal profile of 2 minutes at 25° C., followed by a ramp rate of 1° C./minute up to 99° C. The melting temperature for each well was determined from the first derivative of the melt curve. The change in melting temperature (ΔTm) was obtained by subtraction of the melting temperature of the FADBD in 5% DMSO alone."}, "db/db mice [3]": {"tested_on": "db/db mice", "assay": "Increasing dosages of Compound 72 over 7 days in db/db mouse model of type II diabetes", "assay_type": "in vivo", "details": "10, 50, 100 mg/kg PO QD 7 days", "from_the_text": "as §1"}},
  "data": [
    {"smiles": "O=C1NCCN1CC(O)Cn1c2ccc(F)cc2c2cc(F)ccc21", "note": "(stereo not drawn) [Compound 72, 1-(3-(3,6-difluoro-9H-carbazol-9-yl)-2-hydroxypropyl)imidazolidin-2-one]", "values": [
      {"measurement": "OGTT glucose vs vehicle control group", "setting": "db/db mice [1]", "result": "lower than the vehicle control group"},
      {"measurement": "change in melting temperature (ΔTm) of hCRY1 FADBD", "setting": "[2]", "result": "dose-dependent increase in ΔTm"},
      {"measurement": "OGTT glucose excursion following a glucose load", "setting": "db/db mice [3]", "result": "dose dependent effect on glucose excursion"}
    ]}
  ]
}
